Results taken from article PMC5844890 (Scientific Reports, 2018).
Like-named read-outs stand apart in the source and are kept apart here.

What was measured:
HeLa cells = test: Anti-proliferative activity, HeLa cervical carcinoma cells (Coulter counting); type: cell-based; details: Homo sapiens, 72 h, read-out: Tumor cells IC50 HeLa
Source text: (§1) The anti-proliferative activity of the synthesized benzofurane derivatives was studied in three human cancer cell lines [breast carcinoma (MDA-MB-231), lymphoblastic leukemia (CEM) and cervical carcinoma (HeLa) cells] and one endothelial cell line [human microvascular endothelial cells (HMEC-1)].
(§2) The human microvascular endothelial cell line HMEC-1 was obtained at passage 12 from the Centers for Disease Control and Prevention (Atlanta, GA, USA) and used from passage 17 till 27. Human breast carcinoma (MDA-MB-231), human cervical carcinoma (HeLa) and human T-lymphoid (CEM) cells were obtained from ATCC (Middlesex, UK). Cell lines were maintained in culture for up to 3 months and grown in DMEM, supplemented with 10% FBS, 0.01 M Hepes and 1 mM sodium pyruvate. All cells were cultured in a humidified 5% CO2 incubator at 37 °C.
(§3) HMEC-1 cells were seeded in 48-well plates at 20,000 cells/well. After 24 h, 5-fold dilutions of the compounds were added. The cells were allowed to proliferate 4 days in the presence of the compounds, trypsinized, and counted by means of a Coulter counter (Analis, Belgium). HeLa and MDA-MB-231 cells were seeded in 48-well plates at 10,000 cells/well. After 24 h, different concentrations of the compounds were added. After 3 days of incubation, the cells were trypsinized and counted in a Coulter counter. Suspension cells (human lymphoid Cem cells) were seeded in 96-well plates at 60,000 cells/well in the presence of different concentrations of the compounds, allowed to proliferate for 96 h, and counted in a Coulter counter. The 50% inhibitory concentration (IC50) was defined as the compound concentration required to reduce cell proliferation by 50%.

CEM cells = test: Anti-proliferative activity, CEM lymphoblastic leukemia cells (Coulter counting); type: cell-based; details: Homo sapiens, CCRF-CEM, 96 h, read-out: Tumor cells IC50 CEM
Source text: as §1, §2, §3

MDA-MB-231 cells [1] = test: Anti-proliferative activity, MDA-MB-231 breast carcinoma cells (Coulter counting); type: cell-based; details: Homo sapiens, MDA-MB-231, 72 h, read-out: Tumor cells IC50 MDA-MB-231
Source text: as §1, §2, §3

HMEC-1 cells [2] = test: Anti-proliferative activity, HMEC-1 microvascular endothelial cells (Coulter counting); type: cell-based; details: Homo sapiens, HMEC-1, 96 h, read-out: Endothelial cells IC50 HMEC-1
Source text: as §1, §2, §3

A2780AD cells = test: Anti-proliferative activity, A2780AD (MDR overexpressing P-glycoprotein) ovarian carcinoma cells; type: cell-based, human; details: P-glycoprotein overexpressing resistant line, mean ± standard error of three independent experiments, read-out: A2780 AD IC50
Source text: (§4) One of the most relevant causes of tumor resistance to chemotherapy is the overexpression of membrane pumps which remove the chemotherapeutic agents from the treated cells.

MDA-MB-231 cells [3] = test: Cell cycle analysis (propidium iodide, flow cytometry); type: cell-based, human; details: 0.3 µM, 24 h treatment
Method: Tubulin-binding agents interfere with mitotic spindle formation during cell division. […] Thus, we investigated whether 27 and 28 affect the progression of human breast cancer MDA-MB-231 cells through the cell cycle. […] In contrast, compounds 27 and 28 arrested the cell cycle in the M phase (mitosis) at concentrations as low as 0.03 and 0.1 μM (for compound 27 and 28 respectively).
(§5) Figure 6 Mechanism of action of the benzofurane derivatives. (A) Inhibition of cell cycle progression. MDA-MB-231 cells were treated with DMSO (control) or compounds 8, 27 or 28 for 24 h. Next, the cells were harvested, stained with propidium iodide (PI), and cell cycle distribution was evaluated by flow cytometry. Percentages of cells in the different phases of the cell cycle are indicated. (B) Caspase-3 activity. MDA-MB-231 cells were seeded in 48-well plates at 40,000 cells/cm². After 24 h, different concentrations of compounds 8, 27 or 28 and 2 µM of the caspase-3 substrate DEVD-NucView488 were added. After 16 h, the cells were incubated with 2 µg/ml Hoechst 33342 to stain the nucleus, and imaged. (C) Disruption of the vascular network. HMEC-1 cells were cultured on matrigel for 3 h to allow the formation of tube-like structures. Next, different concentrations of compounds were added. Upper panel: After 90 min, pictures were taken and the tubular network was scored (3: intact network, 0: network completely destroyed). Bars show average ± SEM (n = 4). Lower panel: Microscopic pictures of the tubular network 3 h after addition of compound.
MDA-MB-231 cells were seeded in 6-well plates at 125,000 cells/well in DMEM with 10% FBS. After 24 h, the cells were exposed to different concentrations of the compounds. After 24 h, the DNA of the cells was stained with propidium iodide using the CycleTEST PLUS DNA Reagent Kit (BD Biosciences, San Jose, CA). The DNA content of the stained cells was assessed by flow cytometry on a FACSCalibur flow cytometer and analyzed with CellQuest software (BD Biosciences) within 3 h after staining. Cell debris and clumps were excluded from the analysis by appropriate dot plot gating. Percentages of sub-G1, G1, S, and G2/M cells were estimated using appropriate region markers.

HMEC-1 cells [4] = test: IncuCyte scratch wound migration assay with PI uptake; type: cell-based
Method: Proper tubulin organization is not only required for cell division but also for cell motility and migration. Therefore, we evaluated the capacity of the compounds to inhibit the migration of HMEC-1 endothelial cells. To this end, we used the 96-well IncuCyte® scratch wound assay. After the creation of a cell-free zone (wound) in a confluent cell monolayer, compounds were added, and relative wound density was measured every minute and visualized in time-course plots. PI was added to all wells to visualize toxicity over time, i.e. only dead cells take up this cell-impermeable dye.
Figure 7 Inhibition of HMEC-1 migration. The 96-well IncuCyte® scratch wound assay was used to create a cell-free zone (wound) in a confluent cell monolayer. Next, compounds were added and the relative wound density was measured every minute and visualized in time-course plots (left panels). PI is added to all wells to visualize toxicity over time, i.e. only dead cells take up this cell-impermeable dye (right panels). Average ± SEM (n = 3) are shown.
Wounds were created in confluent HMEC-1 cells by means of the “Incucyte® wound maker”. Next, different concentrations of compound and PI were added and images were taken every 2 min for the duration of the experiment. The algorithm masks each phase-contrast image to identify the position of the wounded (cell-free) and unwounded (cell-occupied) zones. Relative wound density is calculated and visualized in time-course plots.

MDA-MB-231 cells [5] = test: Caspase-3 activity / apoptosis in live cells (fluorescence microscopy); type: cell-based, human; details: 1 µM, after 24 h
Method: as §5
To confirm the capacity of compounds 27 and 28 to induce apoptosis, MDA-MB-231 cells were treated with the compounds for 24 h in the presence of NucView® 530 Caspase-3. This substrate is cleaved by active caspase-3 activity (the main executioner enzyme during apoptosis) to generate a fluorescent derivative that is analyzed using fluorescence microscopy.
MDA-MB-231 cells were seeded at 40,000 cells/cm². After 24 h, cells were incubated in Fluorobrite DMEM (Gibco), containing the compound and 2 µM of the caspase-3 substrate DEVD-NucView488 (Biotium, Hayward, CA). After 16 h, the DNA was stained with Hoechst33342 and the cells were imaged by fluorescence microscopy.

A2780 cells = test: Anti-proliferative activity, A2780 ovarian carcinoma cells; type: cell-based, human; details: mean ± standard error of three independent experiments
Source text: as §4

αβ-tubulin = details: relative to prototypes 7 and 8; cited from earlier work
[6] = tested on: tumor and endothelial cells; design: method as in PMID 24773591; details: relative to prototypes 7 and 8; cited from earlier work
[7] = mean ± SD of three independent experiments, 3 days of incubation
[8] = mean ± SD of three independent experiments
[9] = mean ± SD of three independent experiments, 4 days

CC(Nc1cccc2cc(C)oc12)=C1C(=O)CC(c2ccccc2)CC1=O (stereo not drawn) [Compound 14, 2-(1-((2-Methylbenzofuran-7-yl)amino)ethylidene)-5-phenylcyclohexane-1,3-dione]
IC50 (HeLa cells; [7]): 0.16 ± 0.01 µM
IC50 (CEM cells; [8]): 0.038 ± 0.001 µM
melting point: 127 to 129 °C
IC50 (MDA-MB-231 cells [1]; [7]): 0.053 ± 0.006 µM
IC50 (HMEC-1 cells [2]; [9]): 0.065 ± 0.003 µM

CCOc1ccccc1NC(C)=C1C(=O)CC(c2ccccc2)CC1=O (stereo not drawn) [Compound 8]
IC50 (HeLa cells): 0.18 µM
IC50 (CEM cells): 0.19 ± 0.01 µM
IC50 (A2780AD cells; Homo sapiens, A2780AD): 0.111 ± 0.016 µM
cell cycle arrest (MDA-MB-231 cells [3]): no longer active
lowest concentration inhibiting wound closure (HMEC-1 cells [4]): 0.5 µM
uptake of PI (toxicity) (HMEC-1 cells [4]; at the lowest concentration inhibiting wound closure (0.5, 0.06 and 0.06 µM)): No increased uptake of PI
apoptotic rate (apoptotic cells, caspase-3 substrate) (MDA-MB-231 cells [5]): 9%
IC50 (MDA-MB-231 cells [1]): 0.068 ± 0.005 µM
IC50 (HMEC-1 cells [2]): 0.1 ± 0.02 µM
IC50 (A2780 cells; Homo sapiens, A2780): 0.116 ± 0.008 µM

COc1cc([C@@H]2c3cc4c(cc3[C@H](O)[C@H]3COC(=O)[C@H]23)OCO4)cc(OC)c1OC [Podophillotoxin, reference compound]
IC50 (A2780AD cells): 0.074 ± 0.012 µM
IC50 (A2780 cells): 0.064 ± 0.009 µM

COc1ccc(/C=C\c2cc(OC)c(OC)c(OC)c2)cc1OP(=O)(O)O [CA-4P, reference compound]
IC50 (HeLa cells): 0.013 ± 0.001 µM
IC50 (CEM cells): 0.011 ± 0.001 µM
IC50 (MDA-MB-231 cells [1]): 0.0021 ± 0.0003 µM
IC50 (HMEC-1 cells [2]): 0.0029 ± 0.0001 µM

CCC(Nc1ccccc1O)=C1C(=O)CC(c2ccccc2)CC1=O (stereo not drawn) [Compound 9]
fold less active in tubulin binding (αβ-tubulin): 100 fold
fold less active in antiproliferative assays [6]: 100 fold

CNC(=O)c1cc2cccc(NC(C)=C3C(=O)CC(c4ccccc4)CC3=O)c2o1 (stereo not drawn) [Compound 21, 7-((1-(2,6-Dioxo-4-phenylcyclohexylidene)ethyl)amino)-N-methylbenzofuran-2-carboxamide]
IC50 (HeLa cells; [7]): 12 ± 6 µM
IC50 (CEM cells; [8]): 5.5 ± 1.7 µM
melting point: 108 to 110 °C
IC50 (MDA-MB-231 cells [1]; [7]): 1.5 ± 0.6 µM
IC50 (HMEC-1 cells [2]; [9]): 14 ± 11 µM

COC(=O)c1cc2cccc(NC(C)=C3C(=O)CC(c4ccccc4)CC3=O)c2o1 (stereo not drawn) [Compound 20, Methyl 7-((1-(2,6-dioxo-4-phenylcyclohexylidene)ethyl)amino)benzofuran-2-carboxylate]
IC50 (HeLa cells; [7]): 0.89 ± 0.03 µM
IC50 (CEM cells; [8]): 0.64 ± 0.36 µM
IC50 (A2780AD cells; Homo sapiens, A2780AD): 0.66 ± 0.05 µM
melting point: 178 to 180 °C
IC50 (MDA-MB-231 cells [1]; [7]): 0.17 ± 0.01 µM
IC50 (HMEC-1 cells [2]; [9]): 1.6 ± 0.6 µM
IC50 (A2780 cells; Homo sapiens, A2780): 0.44 ± 0.02 µM

CC(Nc1cccc2cc(CO)oc12)=C1C(=O)CC(c2ccccc2)CC1=O (stereo not drawn) [Compound 22, 2-(1-((2-(Hydroxymethyl)benzofuran-7-yl)amino)ethylidene)-5-phenylcyclohexane-1,3-dione]
IC50 (HeLa cells; [7]): 0.14 ± 0.04 µM
IC50 (CEM cells; [8]): 0.04 ± 0.002 µM
melting point: 120 to 122 °C
IC50 (MDA-MB-231 cells [1]; [7]): 0.015 ± 0.002 µM
IC50 (HMEC-1 cells [2]; [9]): 0.15 ± 0.05 µM

CC(=O)O[C@H]1C(=O)[C@@]2(C)[C@H]([C@H](OC(=O)c3ccccc3)[C@]3(O)C[C@H](OC(=O)[C@H](O)[C@@H](NC(=O)c4ccccc4)c4ccccc4)C(C)=C1C3(C)C)[C@]1(OC(C)=O)CO[C@@H]1C[C@@H]2O [Paclitaxel, reference compound]
IC50 (A2780AD cells; Homo sapiens, A2780AD): 2.1 ± 0.3 µM
IC50 (A2780 cells; Homo sapiens, A2780): 0.001 ± 0.0001 µM
